Data reported in patent publication US10543212B2, “Substituted amines for treating cardiac diseases” (Cardurion Pharmaceuticals, LLC, priority 2017, dated 2020).
pIC50: −log10 of the molar value.

Target: T1, Full-length, GST-tagged, human CaMKIIδ (Homo sapiens, UniProt Q13557)
T1 construct: Full-Length, Glutathione-S-Transferase(GST)-Tagged, Human CaMKIIδ was purchased from Carna Biosciences; purchased Carna Biosciences 02-111
Assay: CaMKIIδ binding assay (TR-FRET with BODIPY-labeled probe ligand)
Details: Table 2; activity class for CaMKIIδ
Summary of the method: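 Compounds were tested as 4-fold, eight-point series for 1 hr at room temperature, and IC50 was obtained by logistic fitting against a 3 μM parent-compound control. Signal came from displacement of a 300 nM BODIPY ligand from 0.5 nM GST-CaMKIIδ, detected via Tb-anti-GST in calmodulin/Ca2+ (pH 7.6).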

T1 sequence (Q13557 1-478 isoform Q13557-12): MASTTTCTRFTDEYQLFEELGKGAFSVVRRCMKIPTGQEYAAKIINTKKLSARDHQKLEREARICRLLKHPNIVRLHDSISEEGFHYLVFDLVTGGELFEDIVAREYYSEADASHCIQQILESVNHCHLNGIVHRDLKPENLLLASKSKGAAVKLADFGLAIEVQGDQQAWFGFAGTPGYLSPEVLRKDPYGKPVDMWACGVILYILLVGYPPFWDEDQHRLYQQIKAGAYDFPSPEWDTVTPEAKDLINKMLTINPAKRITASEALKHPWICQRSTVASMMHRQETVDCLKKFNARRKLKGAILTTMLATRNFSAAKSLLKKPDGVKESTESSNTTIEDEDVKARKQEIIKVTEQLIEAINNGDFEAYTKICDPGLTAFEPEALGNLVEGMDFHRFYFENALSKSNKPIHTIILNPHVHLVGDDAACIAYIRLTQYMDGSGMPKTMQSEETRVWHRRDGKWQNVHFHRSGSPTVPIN

Q: With `C[C@@H](Cn1cnnn1)Oc1cc(-c2cnc(Nc3cn(CC4CCCN4C4CCOCC4)nc3C(F)(F)F)nc2)ccc1Cl` (stereo partly drawn) [Example 611, 5-(3-(((S)-1-(1H-tetrazol-1-yl)propan-2-yl)oxy)-4-chlorophenyl)-N-(1-((1-(tetrahydro-2H-pyran-4-yl)pyrrolidin-2-yl)methyl)-3-(trifluoromethyl)-1H-pyrazol-4-yl)pyrimidin-2-amine] as the compound, how does the pIC50 read?
A: > 8.00

Q: With `COc1ccc(N2C[C@@H](C)N[C@@H](C)C2)cc1Nc1ncc(-c2ccc(Cl)c(O[C@@H](C)Cn3cnnn3)c2)cn1` [Example 612, 5-(3-(((S)-1-(1H-tetrazol-1-yl)propan-2-yl)oxy)-4-chlorophenyl)-N-(5-(cis-3,5-dimethylpiperazin-1-yl)-2-methoxyphenyl)pyrimidin-2-amine] as the compound, how does the pIC50 read?
A: > 8.00

Q: `COc1nc(N2CCN(C(=O)OC(C)(C)C)CC2)ccc1Nc1ncc(-c2ccc(Cl)c(O[C@@H](C)Cn3cnnn3)c2)cn1` [Example 613, tert-butyl (S)-4-(5-((5-(3-((1-(1H-tetrazol-1-yl)propan-2-yl)oxy)-4-chlorophenyl)pyrimidin-2-yl)amino)-6-methoxypyridin-2-yl)piperazine-1-carboxylate] was tested. Which pIC50 did it give?
A: ≤ 7.00

Q: With `COc1nc(N2CCNCC2)ccc1Nc1ncc(-c2ccc(Cl)c(O[C@@H](C)Cn3cnnn3)c2)cn1` [Example 614, (S)-5-(3-((1-(1H-tetrazol-1-yl)propan-2-yl)oxy)-4-chlorophenyl)-N-(2-methoxy-6-(piperazin-1-yl)pyridin-3-yl)pyrimidin-2-amine] as the compound, how does the pIC50 read?
A: > 8.00

Q: With `COc1cc(N2CCOC(CN(C)C)C2)ccc1Nc1ncc(-c2ccc(Cl)c(O[C@@H](C)Cn3cnnn3)c2)cn1` (stereo partly drawn) [Example 615, 5-(3-(((S)-1-(1H-tetrazol-1-yl)propan-2-yl)oxy)-4-chlorophenyl)-N-(4-(2-((dimethylamino)methyl)morpholino)-2-methoxyphenyl)pyrimidin-2-amine] as the compound, how does the pIC50 read?
A: > 8.00

Q: How did the pIC50 turn out when `COc1nc(N2CCN(C3CCOCC3)CC2)ccc1Nc1ncc(-c2ccc(Cl)c(O[C@@H](C)Cn3cnnn3)c2)cn1` [Example 616, (S)-5-(3-((1-(1H-tetrazol-1-yl)propan-2-yl)oxy)-4-chlorophenyl)-N-(2-methoxy-6-(4-(tetrahydro-2H-pyran-4-yl)piperazin-1-yl)pyridin-3-yl)pyrimidin-2-amine] was run?
A: > 8.00

Q: `C[C@@H](Cn1cnnn1)Oc1cc(-c2cnc(Nc3cn(CC(=O)Nc4ccccc4)nc3C(F)(F)F)nc2)ccc1Cl` [Example 617, (S)-2-(4-((5-(3-((1-(1H-tetrazol-1-yl)propan-2-yl)oxy)-4-chlorophenyl)pyrimidin-2-yl)amino)-3-(trifluoromethyl)-1H-pyrazol-1-yl)-N-phenylacetamide] was tested. Which pIC50 did it give?
A: 7.00 to 8.00

Q: How did the pIC50 turn out when `C[C@@H](Cn1cnnn1)Oc1cc(-c2cnc(Nc3cn(C4CCNC4)nc3C(F)(F)F)nc2)ccc1Cl` (stereo partly drawn) [Example 618, 5-(3-(((S)-1-(1H-tetrazol-1-yl)propan-2-yl)oxy)-4-chlorophenyl)-N-(1-(pyrrolidin-3-yl)-3-(trifluoromethyl)-1H-pyrazol-4-yl)pyrimidin-2-amine] was run?
A: > 8.00

Q: How did the pIC50 turn out when `C[C@@H](Cn1cnnn1)Oc1cc(-c2cnc(Nc3cn(C4CCN(C5COC5)C4)nc3C(F)(F)F)nc2)ccc1Cl` (stereo partly drawn) [Example 619, 5-(3-(((S)-1-(1H-tetrazol-1-yl)propan-2-yl)oxy)-4-chlorophenyl)-N-(1-(1-(oxetan-3-yl)pyrrolidin-3-yl)-3-(trifluoromethyl)-1H-pyrazol-4-yl)pyrimidin-2-amine] was run?
A: 7.00 to 8.00

Q: `C[C@@H](Cn1cnnn1)Oc1cc(-c2cnc(Nc3cn(CCOCCO)nc3C(F)(F)F)nc2)ccc1Cl` [Example 620, (S)-2-(2-(4-((5-(3-((1-(1H-tetrazol-1-yl)propan-2-yl)oxy)-4-chlorophenyl)pyrimidin-2-yl)amino)-3-(trifluoromethyl)-1H-pyrazol-1-yl)ethoxy)ethan-1-ol] was tested. Which pIC50 did it give?
A: 7.00 to 8.00

Q: `COc1cc(N2CCNCC2)cnc1Nc1ncc(-c2ccc(Cl)c(O[C@@H](C)Cn3cnnn3)c2)cn1` [Example 621, (S)-5-(3-((1-(1H-tetrazol-1-yl)propan-2-yl)oxy)-4-chlorophenyl)-N-(3-methoxy-5-(piperazin-1-yl)pyridin-2-yl)pyrimidin-2-amine] was tested. Which pIC50 did it give?
A: 7.00 to 8.00
